Measured values from patent US9493446B2, “Orexin receptor antagonists which are [ortho bi-(hetero-)aryl]-[2-(meta bi-(hetero-)aryl)-pyrrolidin-1-yl]-methanone derivatives” (Actelion Pharmaceuticals Ltd, priority 2012, dated 2016).
Read-outs that look alike come from different tables or passages of the source.

Legend:
orexin-1 = orexin-1 (Homo sapiens (Human), UniProt O43613); experiment: Intracellular calcium measurement (FLIPR), CHO cells expressing human orexin-1 receptor, 3 nM orexin-A; type: cell-based; settings: read-out: IC50 OX1
Chain of orexin-1 (O43613 whole entry): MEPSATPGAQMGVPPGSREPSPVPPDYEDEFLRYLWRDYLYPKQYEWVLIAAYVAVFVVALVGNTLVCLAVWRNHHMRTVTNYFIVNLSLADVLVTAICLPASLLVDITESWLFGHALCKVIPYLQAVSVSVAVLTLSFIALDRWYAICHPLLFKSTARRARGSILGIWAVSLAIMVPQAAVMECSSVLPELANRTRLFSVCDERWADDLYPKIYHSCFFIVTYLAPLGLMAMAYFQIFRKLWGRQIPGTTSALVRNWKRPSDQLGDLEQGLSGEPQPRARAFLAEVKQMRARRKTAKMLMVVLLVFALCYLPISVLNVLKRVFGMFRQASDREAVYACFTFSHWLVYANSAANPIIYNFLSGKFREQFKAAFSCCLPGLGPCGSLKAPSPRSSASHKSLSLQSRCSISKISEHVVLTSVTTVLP
Outline: (§1)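 CHO transfectants were dye-loaded (fluo-4 AM, probenecid) and exposed to antagonist for 120 min ahead of agonist.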

human orexin-2 receptor = human orexin-2 receptor (Homo sapiens (Human), UniProt O43614); experiment: Intracellular calcium measurement (FLIPR), CHO cells expressing human orexin-2 receptor, 3 nM orexin-A; type: cell-based; settings: read-out: IC50 OX2
Chain of human orexin-2 receptor (O43614 whole entry): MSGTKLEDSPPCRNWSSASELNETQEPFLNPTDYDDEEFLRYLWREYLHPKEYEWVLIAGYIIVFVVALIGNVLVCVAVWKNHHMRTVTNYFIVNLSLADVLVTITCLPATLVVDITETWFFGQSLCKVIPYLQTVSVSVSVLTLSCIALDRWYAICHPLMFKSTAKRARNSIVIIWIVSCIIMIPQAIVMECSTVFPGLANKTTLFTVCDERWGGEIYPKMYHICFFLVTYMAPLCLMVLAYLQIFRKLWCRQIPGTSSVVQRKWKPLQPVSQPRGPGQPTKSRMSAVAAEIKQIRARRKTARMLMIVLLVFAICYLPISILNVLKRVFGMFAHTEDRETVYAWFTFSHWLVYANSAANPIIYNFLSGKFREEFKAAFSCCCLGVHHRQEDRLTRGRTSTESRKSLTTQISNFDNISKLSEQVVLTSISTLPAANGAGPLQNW
Outline: as §1

[1] = CHO cells expressing human orexin-1 receptor, FLIPR, 3 nM orexin-A, geometric mean if determined several times
[2] = CHO cells expressing human orexin-2 receptor, FLIPR, 3 nM orexin-A, geometric mean if determined several times

Structure (SMILES)	IC50 (orexin-1; [1])	IC50 (human orexin-2 receptor)	IC50 (human orexin-2 receptor; [2])	IC50 (orexin-1)
Cc1c(Cl)cccc1-c1noc([C@@H]2CCCN2C(=O)c2cc(Cl)ccc2-n2nccn2)n1 [compound 264]	165 nM	14 nM	–	–
COc1ccc(-n2nccn2)c(C(=O)N2CCC[C@H]2c2nc(-c3cccc(Cl)c3C)no2)c1F [compound 265]	112 nM	–	76 nM	–
Cc1ccc(-n2nccn2)c(C(=O)N2CCC[C@H]2c2nc(-c3cccc(Cl)c3C)no2)c1F [compound 266]	–	14 nM	–	115 nM
Cc1noc(-c2ccccc2C(=O)N2CCC[C@H]2c2nc(-c3cccc(Cl)c3C)no2)n1 [compound 267]	501 nM	–	177 nM	–
Cc1c(Cl)cccc1-c1noc([C@@H]2CCCN2C(=O)c2ccccc2-c2ccccc2)n1 [compound 268]	233 nM	–	31 nM	–
COc1cc(C(=O)N2CCC[C@H]2c2nc(-c3cccc(Cl)c3C)no2)c(-c2ncccn2)cc1C [compound 269]	177 nM	–	12 nM	–
Cc1ccc(-n2nccn2)c(C(=O)N2CCC[C@H]2c2nc(-c3cccc(OC(F)(F)F)c3)no2)c1 [compound 270, (5-Methyl-2-[1,2,3]triazol-2-yl-phenyl)-{(S)-2-[3-(3-trifluoromethoxy-phenyl)-[1,2,4]oxadiazol-5-yl]-pyrrolidin-1-yl}-methanone]	282 nM	–	32 nM	–
Cc1ccc(C(=O)N2CCC[C@H]2c2nc(-c3ccccc3OC(F)(F)F)no2)c(-n2nccn2)c1C [compound 271, (3,4-Dimethyl-2-[1,2,3]triazol-2-yl-phenyl)-{(S)-2-[3-(2-trifluoromethoxy-phenyl)-[1,2,4]oxadiazol-5-yl]-pyrrolidin-1-yl}-methanone]	69 nM	–	189 nM	–
COc1c(F)cccc1-c1noc([C@@H]2CCCN2C(=O)c2ccc(C)c(C)c2-n2nccn2)n1 [compound 272, (3,4-Dimethyl-2-[1,2,3]triazol-2-yl-phenyl)-{(S)-2-[3-(3-fluoro-2-methoxy-phenyl)-[1,2,4]oxadiazol-5-yl]-pyrrolidin-1-yl}-methanone]	149 nM	–	252 nM	–
CCOc1ncccc1-c1noc([C@@H]2CCCN2C(=O)c2ccc(C)c(C)c2-n2nccn2)n1 [compound 273, (3,4-Dimethyl-2-[1,2,3]triazol-2-yl-phenyl)-{(S)-2-[3-(2-ethoxy-pyridin-3-yl)-[1,2,4]oxadiazol-5-yl]-pyrrolidin-1-yl}-methanone]	148 nM	–	134 nM	–
Cc1ccc(-c2ncccn2)c(C(=O)N2CCC[C@H]2c2nc(-c3cccc(Cl)c3C)no2)c1 [compound 274]	171 nM	–	29 nM	–
N#Cc1ccc(-n2nccn2)c(C(=O)N2CCC[C@H]2c2nc(-c3ccccc3OC(F)(F)F)no2)c1 [compound 275, 4-[1,2,3]Triazol-2-yl-3-{(S)-2-[3-(2-trifluoromethoxy-phenyl)-[1,2,4]oxadiazol-5-yl]-pyrrolidine-1-carbonyl}-benzonitrile]	210 nM	–	161 nM	–
Cc1c(Cl)cccc1-c1noc([C@@H]2CCCN2C(=O)c2cc(C#N)ccc2-n2nccn2)n1 [compound 276]	762 nM	–	243 nM	–
Cc1c(F)cccc1-c1noc([C@@H]2CCCN2C(=O)c2cc(C#N)ccc2-n2nccn2)n1 [compound 277, 3-{(S)-2-[3-(3-Fluoro-2-methyl-phenyl)-[1,2,4]oxadiazol-5-yl]-pyrrolidine-1-carbonyl}-4-[1,2,3]triazol-2-yl-benzonitrile]	1480 nM	–	297 nM	–
CCOc1ncccc1-c1noc([C@@H]2CCCN2C(=O)c2cc(C#N)ccc2-n2nccn2)n1 [compound 279, 3-{(S)-2-[3-(2-Ethoxy-pyridin-3-yl)-[1,2,4]oxadiazol-5-yl]-pyrrolidine-1-carbonyl}-4-[1,2,3]triazol-2-yl-benzonitrile]	296 nM	–	135 nM	–
COc1cc(C(=O)N2CCC[C@H]2c2nc(-c3cccc(Cl)c3C)no2)c(-n2nccn2)cc1Cl [compound 280]	54 nM	–	4 nM	–
COc1cc(C(=O)N2CCC[C@H]2c2nc(-c3ccccc3OC(F)(F)F)no2)c(-n2nccn2)cc1Cl [compound 281]	42 nM	–	17 nM	–
COc1cc(C(=O)N2CCC[C@H]2c2nc(-c3cccc(F)c3OC)no2)c(-n2nccn2)cc1Cl [compound 282]	44 nM	–	1 nM	–
CCOc1c(F)cccc1-c1noc([C@@H]2CCCN2C(=O)c2cc(OC)c(Cl)cc2-n2nccn2)n1 [compound 283]	–	–	7 nM	34 nM
CCOc1ncccc1-c1noc([C@@H]2CCCN2C(=O)c2cc(OC)c(Cl)cc2-n2nccn2)n1 [compound 284]	–	–	5 nM	32 nM

Structure (SMILES)	IC50 (orexin-1; [1])	IC50 (human orexin-2 receptor)	IC50 (human orexin-2 receptor; [2])	IC50 (orexin-1)
COc1cc(C(=O)N2CCC[C@H]2c2nc(-c3ccccc3OC(F)(F)F)no2)c(-c2ncccn2)cc1C [compound 285, (5-Methoxy-4-methyl-2-pyrimidin-2-yl-phenyl)-{(S)-2-[3-(2-trifluoromethoxy-phenyl)-[1,2,4]oxadiazol-5-yl]-pyrrolidin-1-yl}-methanone]	90 nM	–	56 nM	–
COc1cc(C(=O)N2CCC[C@H]2c2nc(-c3cccc(F)c3OC)no2)c(-c2ncccn2)cc1C [compound 286, {(S)-2-[3-(3-Fluoro-2-methoxy-phenyl)-[1,2,4]oxadiazol-5-yl]-pyrrolidin-1-yl}-(5-methoxy-4-methyl-2-pyrimidin-2-yl-phenyl)-methanone]	90 nM	–	6 nM	–
CCOc1ncccc1-c1noc([C@@H]2CCCN2C(=O)c2cc(OC)c(C)cc2-c2ncccn2)n1 [compound 287, {(S)-2-[3-(2-Ethoxy-pyridin-3-yl)-[1,2,4]oxadiazol-5-yl]-pyrrolidin-1-yl}-(5-methoxy-4-methyl-2-pyrimidin-2-yl-phenyl)-methanone]	73 nM	–	42 nM	–
CCOc1c(F)cccc1-c1noc([C@@H]2CCCN2C(=O)c2ccccc2-n2nccn2)n1 [compound 288, {(S)-2-[3-(2-Ethoxy-3-fluoro-phenyl)-[1,2,4]oxadiazol-5-yl]-pyrrolidin-1-yl}-(2-[1,2,3]triazol-2-yl-phenyl)-methanone]	666 nM	–	52 nM	–
CCOc1c(F)cccc1-c1noc([C@@H]2CCCN2C(=O)c2ccc(C)cc2-n2nccn2)n1 [compound 289, {(S)-2-[3-(2-Ethoxy-3-fluoro-phenyl)-[1,2,4]oxadiazol-5-yl]-pyrrolidin-1-yl}-(4-methyl-2-[1,2,3]triazol-2-yl-phenyl)-methanone]	44 nM	–	37 nM	–
CCOc1c(F)cccc1-c1noc([C@@H]2CCCN2C(=O)c2cc(C)c(C)cc2-n2nccn2)n1 [compound 290, (4,5-Dimethyl-2-[1,2,3]triazol-2-yl-phenyl)-{(S)-2-[3-(2-ethoxy-3-fluoro-phenyl)-[1,2,4]oxadiazol-5-yl]-pyrrolidin-1-yl}-methanone]	9 nM	–	5 nM	–
CCOc1c(F)cccc1-c1noc([C@@H]2CCCN2C(=O)c2cc(OC)c(C)cc2-n2nccn2)n1 [compound 291, {(S)-2-[3-(2-Ethoxy-3-fluoro-phenyl)-[1,2,4]oxadiazol-5-yl]-pyrrolidin-1-yl}-(5-methoxy-4-methyl-2-[1,2,3]triazol-2-yl-phenyl)-methanone]	21 nM	–	5 nM	–
CCOc1c(F)cccc1-c1noc([C@@H]2CCCN2C(=O)c2cc(OC)c(F)cc2-n2nccn2)n1 [compound 292, {(S)-2-[3-(2-Ethoxy-3-fluoro-phenyl)-[1,2,4]oxadiazol-5-yl]-pyrrolidin-1-yl}-(4-fluoro-5-methoxy-2-[1,2,3]triazol-2-yl-phenyl)-methanone]	348 nM	–	52 nM	–
Cc1cc(-n2nccn2)c(C(=O)N2CCC[C@H]2c2nc(-c3cccc(Cl)c3C)no2)cc1Cl [compound 293]	32 nM	–	10 nM	–
Cc1c(F)cccc1-c1noc([C@@H]2CCCN2C(=O)c2ccc(Cl)cc2-n2nccn2)n1 [compound 294]	155 nM	–	17 nM	–
COc1cc(C(=O)N2CCC[C@H]2c2nc(-c3cccc(F)c3C)no2)c(-n2nccn2)cc1Cl [compound 295]	78 nM	–	3 nM	–
Cc1c(Cl)cccc1-c1noc([C@@H]2CCCN2C(=O)c2cccc(Cl)c2-n2nccn2)n1 [compound 296]	582 nM	272 nM	–	–
COc1c(F)cccc1-c1noc([C@@H]2CCCN2C(=O)c2cccc(Cl)c2-n2nccn2)n1 [compound 297]	–	–	478 nM	690 nM
O=C(c1cccc(Cl)c1-n1nccn1)N1CCC[C@H]1c1nc(-c2ccccc2OC(F)(F)F)no1 [compound 298]	531 nM	–	517 nM	–
Cc1cc(-n2nccn2)c(C(=O)N2CCC[C@H]2c2nc(-c3ccccc3OC(F)(F)F)no2)cc1Cl [compound 299]	25 nM	–	19 nM	–
CCOc1c(F)cccc1-c1noc([C@@H]2CCCN2C(=O)c2cc(Cl)c(C)cc2-n2nccn2)n1 [compound 300]	14 nM	–	10 nM	–
CCOc1ncccc1-c1noc([C@@H]2CCCN2C(=O)c2cc(Cl)c(C)cc2-n2nccn2)n1 [compound 301]	19 nM	–	6 nM	–
Cc1cccc(-c2nc([C@@H]3CCCN3C(=O)c3cc(C)ccc3-n3nccn3)no2)c1 [compound 305, (5-Methyl-2-[1,2,3]triazol-2-yl-phenyl)-[(S)-2-(5-m-tolyl-[1,2,4]oxadiazol-3-yl)-pyrrolidin-1-yl]-methanone]	164 nM	–	74 nM	–
CCOc1ccccc1-c1nc([C@@H]2CCCN2C(=O)c2cc(C)ccc2-n2nccn2)no1 [compound 306, {(S)-2-[5-(2-Ethoxy-phenyl)-[1,2,4]oxadiazol-3-yl]-pyrrolidin-1-yl}-(5-methyl-2-[1,2,3]triazol-2-yl-phenyl)-methanone]	36 nM	–	2 nM	–
